# Test results from PubChem BioAssay AID1963842 (Molecular Pharmacology Branch, DTP, NCI, 2024).
# Test system: 677734-321-R-J1-PDC complex spheroid viability
# Assay: Anticancer human tumor 677734-321-R-J1-PDC patient-derived soft tissue sarcoma cell line growth inhibition [POLQ]
# Conditions: for IC50: curve of first compound; for viability, T/C: stronger effect = lower value
# Outline: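 Growth inhibition in 3D: complex spheroids (tumor PDC, HUVEC, MSC) treated with POLQ inhibitor combinations; where Cmax unknown, highest tested concentration 10 microM, except SN-38 at 1 microM.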
# 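Further: spheroids exposed to compounds for one week.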
# 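Wherever viability, T/C is given: 100% = vehicle DMSO treated spheroids.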
smiles,measurement,setting,value
CCCS(=O)(=O)Nc1ccc(F)c(C(=O)c2c[nH]c3ncc(-c4ccc(Cl)cc4)cc23)c1F + COC1C(OC(N)=O)C(O)C(Oc2ccc3c(O)c(NC(=O)c4ccc(O)c(CC=C(C)C)c4)c(=O)oc3c2C)OC1(C)C,IC50,second compound 0.0316 µM,6.53 µM
same,IC50,second compound 0.1 µM,6.39 µM
same,IC50,second compound 0.316 µM,6.59 µM
same,IC50,second compound 1 µM,6.51 µM
same,IC50,second compound 3.16 µM,6.73 µM
same,IC50,second compound 10 µM,6.49 µM
same,"viability, T/C","second compound 0.0316 µM, first compound 0.0316 µM",103%
same,"viability, T/C","second compound 0.0316 µM, first compound 0.1 µM",109%
same,"viability, T/C","second compound 0.0316 µM, first compound 0.316 µM",101%
same,"viability, T/C","second compound 0.0316 µM, first compound 1 µM",118%
same,"viability, T/C","second compound 0.0316 µM, first compound 3.16 µM",106%
same,"viability, T/C","second compound 0.0316 µM, first compound 10 µM",16.7%
same,"viability, T/C","second compound 0.1 µM, first compound 0.0316 µM",108%
same,"viability, T/C","second compound 0.1 µM, first compound 0.1 µM",107%
same,"viability, T/C","second compound 0.1 µM, first compound 0.316 µM",104%
same,"viability, T/C","second compound 0.1 µM, first compound 1 µM",120%
same,"viability, T/C","second compound 0.1 µM, first compound 3.16 µM",104%
same,"viability, T/C","second compound 0.1 µM, first compound 10 µM",15.3%
same,"viability, T/C","second compound 0.316 µM, first compound 0.0316 µM",105%
same,"viability, T/C","second compound 0.316 µM, first compound 0.1 µM",110%
same,"viability, T/C","second compound 0.316 µM, first compound 0.316 µM",109%
same,"viability, T/C","second compound 0.316 µM, first compound 1 µM",110%
same,"viability, T/C","second compound 0.316 µM, first compound 3.16 µM",109%
same,"viability, T/C","second compound 0.316 µM, first compound 10 µM",16.6%
same,"viability, T/C","second compound 1 µM, first compound 0.0316 µM",103%
same,"viability, T/C","second compound 1 µM, first compound 0.1 µM",107%
same,"viability, T/C","second compound 1 µM, first compound 0.316 µM",101%
same,"viability, T/C","second compound 1 µM, first compound 1 µM",112%
same,"viability, T/C","second compound 1 µM, first compound 3.16 µM",109%
same,"viability, T/C","second compound 1 µM, first compound 10 µM",16.5%
same,"viability, T/C","second compound 3.16 µM, first compound 0.0316 µM",106%
same,"viability, T/C","second compound 3.16 µM, first compound 0.1 µM",101%
same,"viability, T/C","second compound 3.16 µM, first compound 0.316 µM",111%
same,"viability, T/C","second compound 3.16 µM, first compound 1 µM",112%
same,"viability, T/C","second compound 3.16 µM, first compound 3.16 µM",112%
same,"viability, T/C","second compound 3.16 µM, first compound 10 µM",19.3%
same,"viability, T/C","second compound 10 µM, first compound 0.0316 µM",107%
same,"viability, T/C","second compound 10 µM, first compound 0.1 µM",104%
same,"viability, T/C","second compound 10 µM, first compound 0.316 µM",109%
same,"viability, T/C","second compound 10 µM, first compound 1 µM",105%
same,"viability, T/C","second compound 10 µM, first compound 3.16 µM",105%
same,"viability, T/C","second compound 10 µM, first compound 10 µM",17.2%
